We go through nine molecules from patent US20140057895A1, “INDAZOLE- AND PYRROLOPYRIDINE-DERIVATIVE AND PHARMACEUTICAL USE THEREOF” (priority 2011, published 2014).

In general, IC50 refers to the concentration that inhibits the measured activity by half. Broadly, the EC50 is the concentration at which the effect is half-maximal. A lower EC50 goes with higher potency in that assay.

Test [1] addresses T1, Human 5-HT4 receptor (5-HT4b) (Homo sapiens, UniProt Q13639).
T1 construct: expressed in transfected cells; membrane preparation
Put plainly: Test Example 3: Human 5-HT4 receptor binding assay, membranes of CHO-K1 cells stably expressing 5-HT4b receptors (Table 99). Conditions: mean value of each group. How it is done:
To an assay tube were added 0.1 nM [^3H]-GR113808 {chemical name: [1-[2-(methylsulfonylamino) ethyl]-4-piperidinyl]methyl 1-methylindole-3-carboxylate}, receptor membrane preparations, and Hepes buffer (50 mM, pH 7.4, 4° C., 1 ml) containing test compounds or 30 μM serotonin; and the mixture was incubated at 37° C. for 30 minutes. On quenching the reaction, the mixture was rapidly filtered on whatman GF/B filter, which was presoaked in 0.1% polyethyleneimine for 1 hour, by using Brandel cell Harvester, and washed with ice-cooled 50 mM Tris-HCl (pH 7.7, 4 ml) three times. To the filter after filtration was added a liquid scintillator (Ecoscint), and then a radioactivity was determined by a liquid scintillation counter.
50% Inhibition concentrations (IC50) were determined from inhibition rates of test compounds to specific bindings which were obtained by subtracting nonspecific bindings from total binding amounts of [^3H]-GR113808.
Human 5-HT4 receptor membrane preparations were prepared from CHO-K^1 cells which stably express 5-HT4b receptors, and human 5-HT4 receptor binding assay was carried out in a similar manner as in the guinea pig 5-HT4 receptor binding assay. The following tables show results of serotonin 4 (5-HT4) receptor binding assay. In the following tables, the compounds used in the test are shown in numbers which correspond to the Example numbers above where the preparations of the compounds are described.

A further test addresses T2, human 5-HT4b receptor (Homo sapiens, UniProt Q13639).
T2 construct: expressed in transfected cells; host or cells: CHO cells (G418 selection)
Put plainly: Test Example 4: Serotonin 4 (5-HT4) receptor agonist activity assay, cAMP HTRF in CHO cells (Table 100). It is filed as cell-based. Conditions: mean value; for Emax: CHO, 0.25 h, intrinsic activity, maximal activity of 5-HT defined as 100%, read-out: IA (%); for EC50: concentration showing 50% of IA. In short, it runs like this:
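Read-out is HTRF cAMP (time-resolved fluorescence 620/665 nm after 1 h RT with cAMP-cryptate and cAMP-d2), from recombinant CHO cells bearing human 5-HT4b treated with compound 15 min at 31° C. in Hanks/HEPES buffer pH 7.4. IA (%) scaled to peak 5-HT effect over 10^−11–10^−7 M; EC50 is concentration giving half that IA.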

T2 sequence (Q13639 whole entry): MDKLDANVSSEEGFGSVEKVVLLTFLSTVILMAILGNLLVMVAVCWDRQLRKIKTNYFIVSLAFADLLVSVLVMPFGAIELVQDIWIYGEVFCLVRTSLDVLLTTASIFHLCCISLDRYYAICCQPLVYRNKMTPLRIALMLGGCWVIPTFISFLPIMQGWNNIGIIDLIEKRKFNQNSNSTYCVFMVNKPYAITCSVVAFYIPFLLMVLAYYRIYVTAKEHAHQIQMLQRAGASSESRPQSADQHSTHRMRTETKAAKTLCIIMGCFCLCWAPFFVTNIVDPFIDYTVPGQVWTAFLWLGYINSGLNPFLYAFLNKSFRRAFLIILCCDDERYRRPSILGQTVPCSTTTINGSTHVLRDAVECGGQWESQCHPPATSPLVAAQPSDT
T1 sequence (Q13639 whole entry): as above

`CC(=O)N1CC[C@@H](CN2CC[C@H](Cc3nc(-n4nc(C(C)C)c5cccc(F)c54)no3)C2)C1` [Example 503, 1-[(3S)-3-{[(3R)-3-({3-[7-fluoro-3-(propan-2-yl)-1H-indazol-1-yl]-1,2,4-oxadiazol-5-yl}methyl)pyrrolidin-1-yl]methyl}pyrrolidin-1-yl]ethanone] showed an IC50 in test [1] below 20 nM. Besides, at human 5-HT4b receptor, the Emax is 98% and the EC50 turned out to be 5 nM.

`CC(C)c1nn(-c2noc(C[C@H]3CCN(C[C@@H]4CCN(S(C)(=O)=O)C4)C3)n2)c2c(F)cccc12` [Example 504, 7-fluoro-1-(5-{[(3R)-1-{[(3S)-1-(methylsulfonyl)pyrrolidin-3-yl]methyl}pyrrolidin-3-yl]methyl}-1,2,4-oxadiazol-3-yl)-3-(propan-2-yl)-1H-indazole] displayed an IC50 in test [1] below 20 nM. At human 5-HT4b receptor, the Emax was determined as 47% and the EC50 amounted to 3.9 nM.

For the molecule `CC(=O)N1CC[C@H](CN2CC[C@H](Cc3nc(-n4nc(C(C)C)c5cccc(F)c54)no3)C2)C1` [Example 505, 1-[(3R)-3-{[(3R)-3-({3-(7-fluoro-3-(propan-2-yl)-1H-indazol-1-yl]-1,2,4-oxadiazol-5-yl}methyl)pyrrolidin-1-yl]methyl}pyrrolidin-1-yl]ethanone], the IC50 in test [1] is below 20 nM. For the same molecule, on human 5-HT4b receptor, the Emax was determined as 52% and the response was half-maximal at 5.5 nM (EC50).

The molecule `CC(C)c1nn(-c2noc(C[C@H]3CCN(C[C@H]4CCN(S(C)(=O)=O)C4)C3)n2)c2c(F)cccc12` [Example 506, 7-fluoro-1-(5-{[(3R)-1-{[(3R)-1-(methylsulfonyl)pyrrolidin-3-yl]methyl}pyrrolidin-3-yl]methyl}-1,2,4-oxadiazol-3-yl)-3-(propan-2-yl)-1H-indazole] registered an IC50 in test [1] below 20 nM. For the same molecule, at human 5-HT4b receptor, the Emax was 46% and the EC50 was determined as 2.8 nM.

`CC(C)c1nn(-c2noc(C[C@@H]3CCN(C4CCN(S(C)(=O)=O)CC4)C3)n2)c2c(F)cccc12` [Example 508, 7-fluoro-1-[5-({(3S)-1-[1-(methylsulfonyl)piperidin-4-yl]pyrrolidin-3-yl}methyl)-1,2,4-oxadiazol-3-yl]-3-(propan-2-yl)-1H-indazole] showed an IC50 in test [1] below 20 nM. Further, on human 5-HT4b receptor, the Emax was 54% and the EC50 is 3.7 nM.

In test [1], `CC(=O)N1CCC[C@H]1CN1CC[C@@H](Cc2nc(-n3nc(C(C)C)c4cccc(F)c43)no2)C1` [Example 509, 1-[(2S)-2-{[(3S)-3-({3-[7-fluoro-3-(propan-2-yl)-1H-indazol-1-yl]-1,2,4-oxadiazol-5-yl}methyl)pyrrolidin-1-yl]methyl)pyrrolidin-1-yl]ethanone] showed an IC50 of 27.4 nM. At human 5-HT4b receptor, the Emax stood at 56% and it took 16.3 nM to reach a half-maximal effect (EC50).

In test [1], `CC(C)c1nn(-c2noc(C[C@@H]3CCN(C[C@@H]4CCCN4S(C)(=O)=O)C3)n2)c2c(F)cccc12` [Example 510, 7-fluoro-1-(5-{[(3S)-1-{[(2S)-1-(methylsulfonyl)pyrrolidin-2-yl]methyl}pyrrolidin-3-yl]methyl}-1,2,4-oxadiazol-3-yl)-3-(propan-2-yl)-1H-indazole] displayed an IC50 below 20 nM. Also, at human 5-HT4b receptor, the Emax is 46% and the EC50 stood at 2.7 nM.

In test [1], `CC(=O)N1CCC[C@@H]1CN1CC[C@@H](Cc2nc(-n3nc(C(C)C)c4cccc(F)c43)no2)C1` [Example 511, 1-[(2R)-2-{[(3S)-3-({3-[7-fluoro-3-(propan-2-yl)-1H-indazol-1-yl]-1,2,4-oxadiazol-5-yl}methyl)pyrrolidin-1-yl]methyl}pyrrolidin-1-yl]ethanone] yielded a half-maximal inhibitory concentration (IC50) below 20 nM. In addition, on human 5-HT4b receptor, the Emax was determined as 51% and the midpoint of the response, the EC50, lay at 9.6 nM.

The molecule `CC(C)c1nn(-c2noc(C[C@@H]3CCN(C[C@H]4CCCN4S(C)(=O)=O)C3)n2)c2c(F)cccc12` [Example 512, 7-fluoro-1-(5-{[(3S)-1-{[(2R)-1-(methylsulfonyl)pyrrolidin-2-yl]methyl}pyrrolidin-3-yl]methyl}-1,2,4-oxadiazol-3-yl)-3-(propan-2-yl)-1H-indazole] displayed an IC50 in test [1] below 20 nM. At human 5-HT4b receptor, the Emax stood at 30% and the concentration for a half-maximal effect (EC50) was 4.3 nM.
